Experiments:
Human recombinant PTP1B = target: T1, Human recombinant PTP1B (Homo sapiens, UniProt P18031); assay type: biochemical
T1 construct: made in house
T1 sequence (P18031 1-435): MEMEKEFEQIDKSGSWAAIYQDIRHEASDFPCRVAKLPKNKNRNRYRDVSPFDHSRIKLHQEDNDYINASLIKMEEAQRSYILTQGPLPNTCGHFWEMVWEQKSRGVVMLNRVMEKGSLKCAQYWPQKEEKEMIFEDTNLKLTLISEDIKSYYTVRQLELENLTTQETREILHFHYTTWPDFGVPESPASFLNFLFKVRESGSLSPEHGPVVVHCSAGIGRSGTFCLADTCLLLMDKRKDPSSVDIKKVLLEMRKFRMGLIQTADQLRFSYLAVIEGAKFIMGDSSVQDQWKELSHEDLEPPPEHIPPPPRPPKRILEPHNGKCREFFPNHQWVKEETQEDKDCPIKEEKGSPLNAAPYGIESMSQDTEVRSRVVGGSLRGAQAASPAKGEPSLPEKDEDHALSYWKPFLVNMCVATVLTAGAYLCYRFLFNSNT

diabetic (ob/ob) mice = experiment: Blood glucose lowering activity in diabetic (ob/ob) mice; assay type: in vivo; conditions: for % Change Glucose from Vehicle: plasma glucose
Excerpt: The procedures used and results obtained are briefly described below.
The non-insulin dependent diabetic (NIDDM) syndrome can be typically characterizes by obesity, hyperglycemia, abnormal insulin secretion, hyperinsulinemia and insulin resistance.
In each test procedure, mice [Male or female ob/ob (C57 B1/6J) and their lean litermates (ob/+ or +/+, Jackson Laboratories) ages 2 to 5 months (10 to 65 g)] of a similar age were randomized according to body weight into 4 groups of 10 mice. The mice were housed 5 per cage and are maintained on normal rodent chow with water ad libitum. Mice received test compound daily by gavage (suspended in 0.5 ml of 0.5% methyl cellulose); dissolved in the drinking water; or admixed in the diet. The dose of compounds given ranges from 2.5 to 200 mg/kg body weight/day. The dose is calculated based on the fed weekly body weight and is expressed as active moiety. The positive control, ciglitazone ([…], see Chang, A., Wyse, B., Gilchrist, B., Peterson, T. and Diani, A. Diabetes 32: 830-838, 1983.) was given at a dose of 100 mg/kg/day, which produces a significant lowering in plasma glucose. Control mice received vehicle only.
On the morning of Day 4, 7 or 14 two drops of blood (approximately 50 ul) were collected into sodium fluoride containing tubes either from the tail vein or after decapitation. For those studies in which the compound was administered daily by gavage the blood samples were collected two hours after compound administration. The plasma was isolated by centrifugation and the concentration of glucose is measured enzymatically on an Abbott V. P. Analyzer.
For each mouse, the percentage change in plasma glucose on Day 4, 7 or 14 is calculated relative to the mean plasma glucose of the vehicle treated mice. Analysis of variance followed by Dunett's Comparison Test (one-tailed) are used to estimate the significant difference between the plasma glucose values from the control group and the individual compound treated groups (CMS SAS Release 5.18).

[1] = test system: rat hepatic microsomal PTPases; conditions: PTPase activity; compounds at 50 μM

Compound | IC50 (Human recombinant PTP1B) [µM] | % Change from Control [1] [%] | also measured
Ammonium molybdate tetrahydrate [reference compound] | 8.7 | – | –
CC1(COc2ccc(CC3SC(=O)NC3=O)cc2)CCCCC1 (stereo not shown) [Ciglitazone, 5-(4-(1-methylcyclohexylmethoxy)benzyl)-2,4-dione, reference compound] | – | – | % Change Insulin from Vehicle (diabetic (ob/ob) mice; dose 100 mg/Kg): −39%; % Change Glucose from Vehicle (diabetic (ob/ob) mice; dose 100 mg/Kg): −43%
Cc1oc2cc3sc4ccccc4c3c(-c3cc(I)c(O[C@H](Cc4ccccc4)C(=O)O)c(I)c3)c2c1C [Example 9, (R)-2-[4-(2,3-Dimethyl-1-oxa-9-thia-cyclopenta[b]fluoren-4-yl)-2,6-diiodo-phenoxy]-3-phenyl-propionic acid] | 0.074 | −72.70 | % Change Insulin from Vehicle (diabetic (ob/ob) mice; dose 10 mg/Kg): −43.43%; % Change Glucose from Vehicle (diabetic (ob/ob) mice; dose 10 mg/Kg, footnote (a): no significant activity (p < 0.05) at this dose): 8.13%
Cc1oc2cc3sc4ccccc4c3c(-c3ccc(O)cc3)c2c1C [Example 5, 4-(2,3-Dimethyl-1-oxa-9-thia-cyclopenta[b]fluoren-4-yl)-phenol] | – | – | melting point: 174 to 175 °C
Cc1oc2cc3sc4ccccc4c3c(-c3cc(I)c(O[C@H](C)C(=O)O)c(I)c3)c2c1C [Example 8, (R)-2-[4-(2,3-Dimethyl-1-oxa-9-thia-cyclopenta[b]fluoren-4-yl)-2,6-diiodo-phenoxy]-propionic acid] | 0.284 | −58.84 | –

Source: patent publication US6340676B2, “4-aryl-1-oxa-9-thia-cyclopenta (b) fluorenes” (American Home Products Corporation, priority 1998, dated 2002)
